Experimental data from publication PMC5209244 (Bioorganic & medicinal chemistry, 2016).
Where a name gives a salt, the structure may show the parent alone.

Columns and labels:
5-HT1AR = 5-HT1AR (Homo sapiens, UniProt P08908); test: NIMH-PDSP radioligand binding, 5-HT1A receptor
5-HT2AR = 5-HT2AR (Homo sapiens, UniProt P28223); test: NIMH-PDSP radioligand binding, 5-HT2A receptor
5-HT2CR = molecular target: T1, 5-HT2CR (Homo sapiens, UniProt P28335); test: NIMH-PDSP radioligand binding, 5-HT2C receptor
T1 sequence (P28335 33-458): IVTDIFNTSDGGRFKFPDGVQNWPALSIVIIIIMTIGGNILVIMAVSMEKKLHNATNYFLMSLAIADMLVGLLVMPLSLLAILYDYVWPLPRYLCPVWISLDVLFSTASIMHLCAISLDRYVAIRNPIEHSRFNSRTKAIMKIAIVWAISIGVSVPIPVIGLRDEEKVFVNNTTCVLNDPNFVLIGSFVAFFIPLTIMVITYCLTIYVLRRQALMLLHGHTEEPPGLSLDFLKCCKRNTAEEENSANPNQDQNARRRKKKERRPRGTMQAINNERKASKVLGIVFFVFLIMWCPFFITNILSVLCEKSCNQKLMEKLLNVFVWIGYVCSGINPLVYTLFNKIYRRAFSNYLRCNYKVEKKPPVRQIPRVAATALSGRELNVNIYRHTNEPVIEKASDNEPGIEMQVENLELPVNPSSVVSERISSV

SERT = SERT (Homo sapiens, UniProt P31645); test: NIMH-PDSP radioligand binding, serotonin transporter
SERT, sequence (P31645 whole entry): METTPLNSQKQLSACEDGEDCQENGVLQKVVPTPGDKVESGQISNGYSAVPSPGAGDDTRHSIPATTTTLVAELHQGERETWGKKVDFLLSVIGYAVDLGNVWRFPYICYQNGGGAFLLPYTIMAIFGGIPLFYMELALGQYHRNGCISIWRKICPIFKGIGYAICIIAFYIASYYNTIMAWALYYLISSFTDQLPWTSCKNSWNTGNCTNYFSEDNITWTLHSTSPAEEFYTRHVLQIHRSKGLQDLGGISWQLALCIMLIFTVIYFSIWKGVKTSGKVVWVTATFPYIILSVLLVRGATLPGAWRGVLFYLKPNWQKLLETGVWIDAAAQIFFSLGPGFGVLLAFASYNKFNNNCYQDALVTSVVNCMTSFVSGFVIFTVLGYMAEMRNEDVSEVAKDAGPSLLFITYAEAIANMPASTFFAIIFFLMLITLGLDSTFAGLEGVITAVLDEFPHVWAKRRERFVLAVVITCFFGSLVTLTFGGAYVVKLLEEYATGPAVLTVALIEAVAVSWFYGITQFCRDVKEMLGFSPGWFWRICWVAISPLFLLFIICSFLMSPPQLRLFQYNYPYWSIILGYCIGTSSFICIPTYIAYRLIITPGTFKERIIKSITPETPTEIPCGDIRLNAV

H1R = H1R (Homo sapiens, UniProt P35367); test: NIMH-PDSP radioligand binding, histamine H1 receptor
H1R, sequence (P35367 whole entry): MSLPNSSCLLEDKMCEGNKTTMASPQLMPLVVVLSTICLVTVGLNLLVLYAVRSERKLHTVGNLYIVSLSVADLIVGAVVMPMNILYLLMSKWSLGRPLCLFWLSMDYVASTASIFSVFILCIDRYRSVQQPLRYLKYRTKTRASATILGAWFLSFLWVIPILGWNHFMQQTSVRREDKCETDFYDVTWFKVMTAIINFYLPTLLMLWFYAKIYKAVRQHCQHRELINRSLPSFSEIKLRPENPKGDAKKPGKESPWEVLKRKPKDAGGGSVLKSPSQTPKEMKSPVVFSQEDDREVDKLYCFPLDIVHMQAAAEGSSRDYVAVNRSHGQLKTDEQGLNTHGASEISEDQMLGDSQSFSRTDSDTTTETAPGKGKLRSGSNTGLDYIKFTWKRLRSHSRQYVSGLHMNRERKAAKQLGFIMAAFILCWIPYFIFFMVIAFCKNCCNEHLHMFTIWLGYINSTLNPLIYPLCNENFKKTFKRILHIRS

5-HT7R = 5-HT7R (Homo sapiens, UniProt P34969); test: NIMH-PDSP radioligand binding, 5-HT7 receptor
5-HT7R, sequence (P34969 whole entry): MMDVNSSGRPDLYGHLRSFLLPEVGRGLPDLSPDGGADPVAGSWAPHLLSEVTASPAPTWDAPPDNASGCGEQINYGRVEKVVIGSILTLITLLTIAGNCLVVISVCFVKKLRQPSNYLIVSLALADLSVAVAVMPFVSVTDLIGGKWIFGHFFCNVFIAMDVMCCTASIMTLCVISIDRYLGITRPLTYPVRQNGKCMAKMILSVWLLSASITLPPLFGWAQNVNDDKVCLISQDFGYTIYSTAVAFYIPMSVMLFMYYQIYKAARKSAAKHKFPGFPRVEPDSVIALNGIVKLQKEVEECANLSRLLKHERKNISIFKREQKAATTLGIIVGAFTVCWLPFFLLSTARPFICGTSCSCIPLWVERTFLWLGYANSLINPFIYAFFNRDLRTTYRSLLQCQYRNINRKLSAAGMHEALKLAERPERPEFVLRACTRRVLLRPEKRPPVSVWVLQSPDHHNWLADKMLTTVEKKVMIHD

5-HT2AR, sequence (P28223 whole entry): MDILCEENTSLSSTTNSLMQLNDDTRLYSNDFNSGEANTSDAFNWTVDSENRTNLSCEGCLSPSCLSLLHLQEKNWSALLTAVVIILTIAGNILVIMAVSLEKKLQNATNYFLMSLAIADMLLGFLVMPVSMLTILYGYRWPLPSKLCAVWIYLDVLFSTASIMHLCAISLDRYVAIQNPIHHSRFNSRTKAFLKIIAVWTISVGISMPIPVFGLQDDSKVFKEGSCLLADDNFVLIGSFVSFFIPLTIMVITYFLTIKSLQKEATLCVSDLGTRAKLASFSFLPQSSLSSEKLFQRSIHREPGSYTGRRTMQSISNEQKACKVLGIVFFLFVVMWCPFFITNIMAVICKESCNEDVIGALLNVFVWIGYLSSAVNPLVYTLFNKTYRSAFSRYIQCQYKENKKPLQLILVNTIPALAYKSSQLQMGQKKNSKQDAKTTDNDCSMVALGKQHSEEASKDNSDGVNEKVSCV
5-HT1AR, sequence (P08908 whole entry): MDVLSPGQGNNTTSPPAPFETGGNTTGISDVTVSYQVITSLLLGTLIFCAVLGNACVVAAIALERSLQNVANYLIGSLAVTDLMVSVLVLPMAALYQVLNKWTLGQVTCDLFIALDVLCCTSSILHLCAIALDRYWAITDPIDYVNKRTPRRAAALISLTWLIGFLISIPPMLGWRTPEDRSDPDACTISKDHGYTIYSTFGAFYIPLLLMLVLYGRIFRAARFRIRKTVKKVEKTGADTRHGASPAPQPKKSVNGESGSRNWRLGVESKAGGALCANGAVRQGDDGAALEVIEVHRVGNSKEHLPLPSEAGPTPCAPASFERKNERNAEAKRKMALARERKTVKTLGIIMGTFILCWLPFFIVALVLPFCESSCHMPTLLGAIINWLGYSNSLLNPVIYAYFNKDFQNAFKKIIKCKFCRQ

SMILES	Ki 5-HT2A (5-HT2AR)	Ki 5HT2CR (5-HT2CR)	Ki SERT (SERT)	SERT binding affinity (in words) (SERT)	further results
Cl.O=C(CCCCN1C2CCC1CC(O)(c1ccc(Cl)cc1)C2)c1nc2ccccc2s1 (stereo not drawn) [Compound 22, 1-(Benzo[d]thiazol-2-yl)-5-(3-(4-chlorophenyl)-3-hydroxy-8-azabicyclo[3.2.1]octan-8-yl)-pentan-1-one hydrochloride]	MTA	MTA	–	–	Ki 5-HT1A (5-HT1AR): MTA
O=C1NCN(c2ccccc2)C12CCN(CCCCc1nc3ccccc3o1)CC2 [Compound 10, 8-(4-(benzo[d]oxazol-2-yl)butyl)-1-phenyl-1,3,8-triazaspiro[4.5]decan-4-one]	MTA	MTA	MTA	without significant affinity	–
O=C1NCN(c2ccccc2)C12CCN(CCCCc1nc3ccccc3s1)CC2 [Compound 7, 8-(4-(benzo[d]thiazol-2-yl)butyl)-1-phenyl-1,3,8-triazaspiro[4.5]decan-4-one]	–	MTA	MTA	–	–
O=C1NCN(c2ccccc2)C12CCN(CCCCc1c[nH]c3ccccc13)CC2 [Compound 11, 8-(4-(1H-indol-3-yl)butyl)-1-phenyl-1,3,8-triazaspiro[4.5]decan-4-one]	–	MTA	–	high affinity	5-HT2CR binding affinity (in words) (5-HT2CR): no significant affinity; H1R binding affinity (in words) (H1R): moderate binding
O=C(CCCCN1CCN(C(c2ccc(F)cc2)c2ccc(F)cc2)CC1)c1nc2ccccc2s1 [Compound 17, 1-(benzo[d]thiazol-2-yl)-5-(4-(bis(4-fluorophenyl)methyl)piperazin-1-yl)pentan-1-one dihydrochloride]	–	–	–	–	pKi ± SE 5-HT7 (5-HT7R): 562.0/ 6.3±0.1
O=C(CCCCN1CCC2(CC1)C(=O)NCN2c1ccccc1)c1nc2ccccc2s1 [Compound 9]	–	MTA	–	–	–
